According to paper PMC12678836, “Screening for dual-target enzyme inhibitors derived from Gardenia jasminoides roots, a medicinal and edible plant: investigation of their potential anti-dementia activity” (Frontiers in Nutrition, 2025):
Where two headings read alike, the source gives them in different places.

Experiments:
AChE [1] = target: T1, AChE (Musca domestica, UniProt A0ABM3VDL1); assay: Affinity ultrafiltration-HPLC binding degree to AChE; design: species or system fly; settings: GJR extract, 37 °C 30 min
T1 sequence (A0ABM3VDL1 81-660): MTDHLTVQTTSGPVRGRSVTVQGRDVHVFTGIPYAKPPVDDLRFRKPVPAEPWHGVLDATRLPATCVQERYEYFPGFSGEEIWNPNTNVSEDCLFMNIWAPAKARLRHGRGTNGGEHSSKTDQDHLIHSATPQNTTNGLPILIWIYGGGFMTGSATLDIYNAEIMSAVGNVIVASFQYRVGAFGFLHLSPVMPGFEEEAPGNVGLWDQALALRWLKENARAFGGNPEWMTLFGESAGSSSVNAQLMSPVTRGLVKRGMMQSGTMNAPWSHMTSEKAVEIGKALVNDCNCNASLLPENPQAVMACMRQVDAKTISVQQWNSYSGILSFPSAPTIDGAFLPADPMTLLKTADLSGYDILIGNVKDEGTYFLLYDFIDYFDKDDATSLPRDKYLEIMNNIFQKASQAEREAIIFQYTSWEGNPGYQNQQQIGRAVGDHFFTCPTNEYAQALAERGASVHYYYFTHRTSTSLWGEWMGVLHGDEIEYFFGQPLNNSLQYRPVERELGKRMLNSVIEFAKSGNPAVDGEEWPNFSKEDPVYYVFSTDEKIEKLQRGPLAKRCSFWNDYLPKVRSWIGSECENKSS
Description: (§1) A total of 300 g of GJR was accurately weighed, dried, and ground into a fine powder using a mechanical grinder. The powdered material was extracted with 60% ethanol (v/v) at a solvent-to-solid ratio of 20:1 (v/v). Each extraction cycle involved ultrasonication for 1 h and was performed twice to ensure exhaustive extraction. The combined extracts were concentrated to dryness by rotary evaporation under reduced pressure, yielding 6.75 g of crude extract. A 50 mg portion of the crude extract was accurately weighed, dissolved in 50% methanol–water (v/v), and diluted to a final concentration of 50 mg/ml to obtain a stock solution for subsequent experiments. All procedures were conducted under controlled laboratory conditions to ensure consistency and reproducibility.
(§2) The screening assay consisted of two groups: a blank control and an experimental group, both prepared in phosphate-buffered saline (PBS). In the experimental group, 10.0 μl of the sample solution was mixed with 90.0 μl of either 5-lipoxygenase (5-LOX) and acetylcholinesterase (AChE) at final concentrations of 0.5, 1.0, or 2.0 U/ml, along with 100 μl of PBS (pH 7.4), resulting in a total volume of 200 μl. The mixture was incubated at 37 °C for 30 min and subsequently filtered through a 100 kDa ultrafiltration membrane by centrifugation at high speed for 10 min. The supernatant was discarded, and the membrane was washed three times with PBS to remove free or non-specifically bound compounds. Then, 150 μl of 50% methanol–water was added to denature the proteins and release the bound small molecules. For the blank control, the enzyme solution was replaced with an equal volume of PBS, while all other experimental conditions remained the same. The resulting eluate was analyzed by HPLC. The binding degree (BD) was used to quantify the interaction between compounds and the target enzymes. It was calculated based on the increase in chromatographic peak area of enzyme-bound compounds, using the following formula: […]

5-LOX [2] = target: T2, 5-LOX (Glycine max, UniProt P08170); assay: Affinity ultrafiltration-HPLC binding degree to 5-LOX; settings: GJR extract, 37 °C 30 min
T2 sequence (P08170 1-839): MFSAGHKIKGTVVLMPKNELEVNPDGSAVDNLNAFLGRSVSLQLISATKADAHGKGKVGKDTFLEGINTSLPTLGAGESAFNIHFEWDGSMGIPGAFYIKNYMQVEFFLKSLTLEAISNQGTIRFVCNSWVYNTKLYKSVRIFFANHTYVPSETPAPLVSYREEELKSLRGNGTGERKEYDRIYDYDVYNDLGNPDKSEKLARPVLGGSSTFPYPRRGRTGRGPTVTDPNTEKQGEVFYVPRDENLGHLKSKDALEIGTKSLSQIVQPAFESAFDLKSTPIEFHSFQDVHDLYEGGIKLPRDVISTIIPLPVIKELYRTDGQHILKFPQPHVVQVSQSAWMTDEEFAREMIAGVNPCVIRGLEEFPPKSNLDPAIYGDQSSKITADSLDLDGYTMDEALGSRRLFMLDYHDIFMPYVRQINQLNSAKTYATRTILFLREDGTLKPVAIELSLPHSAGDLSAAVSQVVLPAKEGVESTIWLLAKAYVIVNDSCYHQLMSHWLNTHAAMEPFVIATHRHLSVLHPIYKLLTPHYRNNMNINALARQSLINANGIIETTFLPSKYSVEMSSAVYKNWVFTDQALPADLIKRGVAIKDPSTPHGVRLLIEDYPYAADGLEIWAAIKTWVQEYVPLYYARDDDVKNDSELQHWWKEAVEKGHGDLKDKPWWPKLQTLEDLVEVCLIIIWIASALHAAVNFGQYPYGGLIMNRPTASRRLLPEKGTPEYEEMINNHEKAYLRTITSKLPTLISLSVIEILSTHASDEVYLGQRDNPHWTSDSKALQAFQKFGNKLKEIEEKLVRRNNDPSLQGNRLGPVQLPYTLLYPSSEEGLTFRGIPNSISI
Description: as §1, §2

5-LOX [3] = target: T2, 5-LOX; assay: 5-LOX enzyme inhibition and inhibition kinetics (linoleic acid substrate, HPLC); format: biochemical; settings: Lineweaver-Burk / rate vs enzyme concentration
Excerpt: Galantamine served as the positive control.

AChE [4] = target: T1, AChE
Description: Acetylcholinesterase (AChE, EC 3.2.1.20) was extracted from fly heads.
All reagents were prepared with 0.05 mol/L phosphate buffer solution at pH 6.8. […] Before use, it was diluted to 0, 5, 10, 15, and 20 × 10^−5 mol/L. 5-LOX and linoleic acid were, respectively prepared at concentrations of 2.08 × 10^−7 and 5.0 × 10^−4 mol/L. AChE and iodinated thioacetylcholine were prepared using the same method.
The mixture was incubated for 10 min at 37 °C in a thermostatic water bath to form the enzyme reaction solution, followed by the addition of linoleic acid (5.0 × 10^−4 mol/L) as the substrate. […] For the AChE assay, 0.1 ml of DTNB solution was included in the reaction mixture and incubated under the same conditions as those used in the 5-LOX experiment, while all other procedural steps remained identical. The control group was not supplemented with samples, while the blank group received an equal volume of buffer solution in place of the enzyme solution. […] Enzyme activity in the absence of any inhibitor was regarded as 100%.
By analyzing the correlation between reaction rate and enzyme concentration, a kinetic curve was generated.
Data analysis was carried out using Origin 8.0 software through one-way ANOVA, with each sample group subjected to three independent replicate experiments (p < 0.05).

For COc1cc(C2OCC3C(c4cc(OC)c(OC5OC(CO)C(O)C(O)C5O)c(OC)c4)OCC23)cc(OC)c1OC1OC(CO)C(O)C(O)C1O (stereo not drawn) [Eleutheroside E], the “BD (binding degree) with AChE” value (AChE [1]; AChE 0.5 U/ml) was 12.19%, the “BD (binding degree) with AChE” value (AChE [1]; AChE 1.0 U/ml) was 21.06% and the “BD (binding degree) with AChE” value (AChE [1]; AChE 2.0 U/ml) was 69.87%. For the same molecule, the “BD (binding degree) with 5-LOX” value (5-LOX [2]; 5-LOX 0.5 U/ml) was 38.17%, the “BD (binding degree) with 5-LOX” value (5-LOX [2]; 5-LOX 1.0 U/ml) was 55.16% and the “BD (binding degree) with 5-LOX” value (5-LOX [2]; 5-LOX 2.0 U/ml) was 59.44%.

With C[C@]1(O)CC[C@@H]2C(C(=O)O)=CO[C@@H](O[C@@H]3O[C@H](CO)[C@@H](O)[C@H](O)[C@H]3O)[C@@H]21 [Mussaenoside acid] the “Inhibition type for 5-LOX” value (5-LOX [3]) was “competitive inhibition”, the “Inhibition type for 5-LOX” value (5-LOX [3]; listed as mussaenoside acid) was “reversible inhibition” and the “Kis, AChE” value (AChE [4]; Lineweaver-Burk) was 102.08. For the same molecule, the “Inhibition type for AChE” value (AChE [4]; concentration exceeds 10 × 10^−5 mol/L) was “mixed-type inhibition”, the “Inhibition type for AChE” value (AChE [4]; concentrations below 5 × 10^−5 mol/L) was “competitive inhibition” and the “Inhibition type for AChE” value (AChE [4]; overall statement in conclusion) was “mixed-type inhibition”.
